This is an account of results in a melting point compilation (Tetko et al.; mined from patent text by program, amines drawn as free bases though some values may be those of a salt).

Regarding `C=CCc1cc(C=C(C(=O)OCC)C(=O)OCC)ccc1OC`, the melting point came out at 69 °C. Molecule `O=C(Nc1ccc(-n2nc(C(F)(F)F)cc2C(F)(F)F)cc1)c1ccc(F)cc1C(F)(F)F` displayed a melting point of 178 to 179 °C. In the case of `CCCCNC(=O)N(C)c1cccc(-c2ccc(C=C(OCC)C(=O)O)cc2)c1`, the melting point turned out to be 126 °C. `CC(C)N(c1ccc(O)cc1)S(=O)(=O)c1ccc(O)cc1` registered a melting point of 158 to 159 °C. Turning to `CC(C)(Cl)Cn1ncc(Cl)c(Cl)c1=O`, the melting point fell in the range of 61 to 66 °C. The molecule `CCOC(=O)c1sc(N(C)C)c2c1CCc1cnn(C)c1-2` gave a melting point of 118 to 119 °C. `NC(=O)C(=O)c1ccccc1CCl` yielded a melting point of 105 to 107 °C. `CCOC(=O)c1cn(-c2ccc3ncccc3c2)cn1` gave a melting point of 90 to 94 °C. With `O=C(O)c1ccc2cc(-c3cc4ccccc4o3)ccn2c1=O` the figure was over 250 °C; with `O=[N+]([O-])c1ccc(NN=Cc2ncc[nH]2)nc1`, 268 to 269 °C; with `Cc1ccc(N(c2ccc(C)cc2)c2ccc(C=Cc3cc(O)cc(O)c3)cc2)cc1`, 161 °C. In the case of `COc1ccccc1[C@H](C)C(=O)O` it was 102 °C.

On to `O=C(CCl)c1ccc(Cl)c(S(=O)(=O)NC2CCCCC2)c1`, for which the melting point was determined as 117 °C.

Molecule `NC(=O)c1[nH]cnc1OC(=O)C(=Cc1ccccc1)c1ccccc1` came in with a melting point of 208 °C.

On to `COC(=O)c1cccc(-c2c(C#N)nn(-c3c(Cl)cc(C(F)(F)F)cc3Cl)c2N)c1`, for which the melting point was in the range of 214 to 216 °C. Turning to `Cc1ccc(-c2nc(OC(C)C)c(Br)c(OC(C)C)n2)cc1`, the melting point is 74 to 75 °C. `CCc1ccc2c(c1)C=Cc1oc(C)nc1C2c1cn(-c2ccnc(NCC(=O)Nc3nc(CC(=O)O)cs3)n2)c(=O)[nH]c1=O` (stereo not drawn): the melting point lay in the range of 205 to 210 °C. In turn, `COCCSc1cc(N)ncn1` gave a melting point of 78 to 80 °C.

With `ClCCN1C2C=C(c3ccc4ccccc4c3)CC1CC2` (stereo not drawn), the melting point lay in the range of 122 to 123 °C. In turn, `OC1CCN(c2nc(-c3ccccc3)cc(-c3ccc4c(c3)OCO4)n2)CC1` came in with a melting point of 120 to 122 °C. The molecule `CCCc1c2nc(C(=O)OC)cc(N(C)S(=O)(=O)c3ccc(C)cc3)c2cc2c(=O)cc(C(=O)OCC)oc12` returned a melting point of 173 to 174 °C. For the molecule `O=C(CS(=O)(=O)c1cccs1)C12CC3CC(CC(C3)C1)C2`, the melting point lay in the range of 118 to 119 °C.

In the case of `O=C(Nc1ccc(F)c(C(F)(F)F)c1)c1cccc2cc(OS(=O)(=O)C(F)(F)F)ccc12`, the melting point is 171 to 172 °C. The molecule `O=C(OC1CCCCC1)C(c1ccccc1)n1cnc2[nH]ncc2c1=O` (stereo not drawn) came in with a melting point of 176 to 180 °C. In the case of `O=C1N=NC(Cc2ccc(OCCc3coc(-c4ccccc4)n3)cc2)O1` (stereo not drawn), the melting point lay in the range of 142 to 144 °C. Turning to `COc1c(C)c2c(c(OS(C)(=O)=O)c1C/C=C(/Cl)CBr)C(=O)OC2`, the melting point is 146 to 148 °C. Take `CCOC(=O)CCC(S)COC(=O)C1=C(C)NC(C)=C([N+](=O)[O-])C1c1ccccc1OCc1ccccc1` (stereo not drawn): the melting point turned out to be 133 °C. `CNc1nc(C)c(-c2ccnc(Nc3cccc(S(=O)(=O)NCCOC)c3)n2)s1` registered a melting point of 205 to 206 °C.

`CCN1CC(COS(=O)(=O)c2ccc(C)cc2)Oc2ccccc21` (stereo not drawn) showed a melting point of 85 to 87 °C. `Cc1c(F)c(F)nc(-c2ccc(C(F)(F)F)cc2)c1F` displayed a melting point of 52 °C.

`CC(C)CCc1cc2nnc(-c3ccccc3F)n2nc1OCc1ncnn1C` displayed a melting point of 103 to 105 °C. Consider `CCCn1c(COC)nc2c(N)nc3ccc(OCC(=O)N4CCOCC4)cc3c21`, for which the melting point lay in the range of 201 to 204 °C. `CN1CCC(OC2c3ccccc3CCn3cc(-c4ccc(N)cc4)nc32)CC1` (stereo not drawn) came in with a melting point of 197 °C. In turn, `O=C(O)c1ccc2cc(OCCCCCCc3cccc(OCc4ccccc4)c3OCc3ccccc3)ccc2c1` yielded a melting point of 66 to 68 °C. As to `O=C(OCc1ccccc1)C(=C1NCCCS1)[N+](=O)[O-]`, the melting point was 78 to 79 °C.

In the case of `COc1ccc(NN=C2C(=O)Nc3ccc(C4=NNC(=O)SC4C)cc32)cc1` (stereo not drawn), the melting point was found to be 273 °C. In turn, `Cc1c(C#N)sc(Br)c1Br` registered a melting point of 77 to 80 °C. In turn, `Fc1ccc(-c2cc(Cl)c3sccc3n2)cc1` registered a melting point of 119 to 121 °C. `O=[N+]([O-])c1cc(Cn2ccnc2)ccc1NC1CCCCC1` showed a melting point of 121 °C.

In turn, `COC(=O)c1cnc(N2CCN(c3nc4ccc(C(F)(F)F)cc4[nH]3)CC2)c(Cl)c1` came in with a melting point of 153 to 159 °C. Molecule `COc1ccc(C2=NN(c3ccc(CC(=O)O)cc3)C(=O)C(C)(C)C2)cc1OC` showed a melting point of 186 to 188 °C. In turn, `COc1ccc2ccc(-n3nc(OCCN4CCOCC4)cc3C)cc2c1` came in with a melting point of 143 to 147 °C. `CC(C)c1nn(-c2ncc(C#N)cn2)cc1CCCO` returned a melting point of 153 to 154 °C. In the case of `COC1CCN(S(=O)(=O)c2ccc(S(N)(=O)=O)cc2C(F)(F)F)CC1` it was 136 to 137 °C.

With `COC(=O)C(=O)c1ccc(OCCOC2CCc3ccccc3C2)cc1` (stereo not drawn), the melting point lay within 86 to 87 °C.

Regarding `CSC(C#N)c1cccc(C(=O)c2ccc(Cl)cc2)c1N` (stereo not drawn), the melting point is 122 °C. With `CN(C)C=Nc1c(Cl)cc(N=Cc2cc(Cl)cc(Cl)c2)cc1Cl` the figure was 194 to 195 °C. The molecule `Cc1ccccc1-c1nsc(S(=O)(=O)N=CN2CCOCC2)n1` came in with a melting point of 151 to 153 °C. `COc1cccc2c1sc1[nH]c(=O)c(=O)[nH]c12` yielded a melting point of over 300 °C.

Consider `C[C@@H](n1cccn1)[C@](O)(Cn1ccnc1)c1ccc(F)cc1F`, for which the melting point fell in the range of 142 to 143 °C. In turn, `O=C1Nc2cccc(-c3ccccc3)c2/C1=C/c1ccc[nH]1` yielded a melting point of 184 to 185 °C. The molecule `C[C@@H](c1ccc(F)cc1)N1Cc2cncn2C(C)(c2ccc(C#N)cc2)C1=O` (stereo partly drawn) came in with a melting point of 78 to 82 °C. With `Cc1cccc(C2CCN(C(=O)CCC(=O)c3ccc4c(c3)CCNCC4)CC2)c1` the figure was 91 to 93 °C; with `CCOc1nn(C(=O)NS(=O)(=O)c2c(C)csc2C(=O)OC)c(=O)n1C`, 169 °C. `Cn1ccc(-c2sc(NC(=O)c3ccncc3)nc2-c2ccco2)cc1=O` showed a melting point of 280 to 282 °C. In the case of `CN(C)C=Nc1c(Cl)cc(N=Cc2c(Cl)cccc2Cl)cc1Cl` it was 84 to 86 °C.

The molecule `CC(C)NC1=NS(=O)(=O)c2cc(Cl)sc2N1` displayed a melting point of 272 to 274 °C. Consider `CSc1nc(Br)cc(Oc2cccc(C(F)(F)F)c2)n1`, for which the melting point is 70 to 71 °C. Regarding `COc1ccnc(N2CCN(Cc3ccc(C(C)(C)NC(C)=O)cc3)CC2)n1`, the melting point fell in the range of 160 to 162 °C. In the case of `CC(Cc1c[nH]c2ccccc12)(NS(=O)(=O)CC12CCC(CC1=O)C2(C)C)C(=O)NC(CO)Cc1ccccc1` (stereo not drawn) it was 81 to 85 °C. With `CNC(=S)[C@]1(c2cccnc2)CCCC[C@H]1NOCc1c(F)c(F)c(F)c(F)c1F`, the melting point was 57 to 60 °C. In turn, `NC(=NO)c1nn(-c2c(Cl)cc(C(F)(F)F)cc2Cl)c(N)c1S(=O)(=O)C(F)(F)F` showed a melting point of 205 to 206 °C.

The molecule `CCCOc1cccc(Oc2ccc3c(c2)C=C(C(=O)Nc2ccc(CN(C)C4CCOCC4)cc2)CCS3(=O)=O)c1` yielded a melting point of 143 to 144 °C. Consider `CC(=O)NC[C@@H]1C[C@H]1c1c(F)ccc2nn(C)cc12` (relative stereo), for which the melting point turned out to be 120 °C. `CC(C)(C)OC(=O)N(C(=O)OC(C)(C)C)c1cc(-c2ccc([N+](=O)[O-])cc2)n(C(=O)OC(C)(C)C)n1` showed a melting point of 154 to 155 °C.

`Oc1ccc([C@H]2CC[C@H](NCCNc3ccccc3)CC2)cc1` returned a melting point of 180 to 184 °C.

With `CCCn1c(=O)c2c(NC)n(C(=O)C(C)C)nc2n(Cc2cccc(Cl)c2)c1=O`, the melting point was in the range of 154 to 156 °C. `CC(=O)Nc1ccc(-c2nc(C(=O)Nc3nccs3)c(-c3ccccc3C)[nH]2)cc1` yielded a melting point of 269 to 271 °C. In turn, `O=C1Nc2cc(Cl)c(Cl)cc2C1=O` returned a melting point of 271 to 272 °C.

The molecule `O=C1CC(=O)CC(c2cc([N+](=O)[O-])ccc2F)C1` yielded a melting point of 171 to 173 °C. For `O=C(O)c1cc(Br)cc2c1NCCS2`, the melting point is 205 to 206 °C.

For `CCOC(=O)CCc1nnc(-c2nccs2)c2cc(OC)ccc12`, the melting point lay in the range of 153 to 154 °C. The molecule `CCc1cc(=O)c2ccc(O)cc2o1` came in with a melting point of 189 °C. In turn, `O=C1CSCN1c1cc(Cl)cc(Cl)c1` displayed a melting point of 87 to 92 °C.

On to `CCOC(=O)c1c[nH]c(=O)c2cc(Cl)ccc12`, for which the melting point is 243 °C. As for `COC(=O)C(C(=O)OC)c1ccc2c(c1)C(=O)c1cc3ccccc3cc1C2=O`, the melting point was in the range of 211 to 215 °C. The molecule `O=C(CNc1ccccc1)c1ccccc1` displayed a melting point of 97 to 99 °C. For the molecule `O=C(O)C1CN(c2ccc(-c3noc(CN4C(=O)c5ccccc5C4=O)n3)cc2)C(=O)O1` (stereo not drawn), the melting point lay within 130 to 135 °C. Regarding `CC#CCOc1ccc(S(=O)(=O)C2(C(=O)O)CCOCC2)cc1`, the melting point turned out to be 197 °C. The molecule `CCOC(=O)c1cnc2c(NC(=O)c3c(Cl)cccc3Cl)cccc2c1COC(C)=O` displayed a melting point of 138 to 142 °C. With `Cc1ccc(Cc2cnc(NCCCN(Cc3ccccc3)c3ccc(Br)cn3)[nH]c2=O)cn1` the figure was 150 to 155 °C. Regarding `COC(=O)c1ccc(Cc2ccc(NC(C)=O)cc2)cn1`, the melting point lay in the range of 175 to 177 °C. Regarding `O=C(NC(c1ccccc1)c1cc2ccncc2[nH]1)c1cccnc1` (stereo not drawn), the melting point was 178 to 188 °C. Consider `CCOC(=O)c1cn(C(C)(C)CO[Si](C)(C)C(C)(C)C)c2cc(Br)ccc2c1=O`, for which the melting point worked out at 133 °C.

`CCCSc1nc(-c2ccc(C#N)cc2)cn1-c1ccc(I)cc1` displayed a melting point of 110 to 115 °C. For `CCCNCC1Cc2ccc(C3=NNC(=O)CC3)cc2C1` (stereo not drawn), the melting point lay in the range of 82 to 84 °C. In turn, `CCOc1nc(=O)c2cc(C(F)(F)F)cc([N+](=O)[O-])c2s1` had a melting point of 146 to 148 °C.

With `O=C(Nc1cc(CO)cc(Nc2c3ccccc3nc3ccccc23)c1)Oc1ccc(N(CCCl)CCCl)cc1`, the melting point was 241 to 242 °C.

For orientation: melting point means the temperature, or range, at which the solid turns liquid.
